Results: PubChem BioAssay AID248 (DTP/NCI, 2004)
Where “and” joins values, the source holds several entries; their conditions need not be identical. Equal values may be shown once. Inconclusive results and toxic doses are left out. Rule as the data show it: active = T/C of 150% or more; inactive = T/C below 125%.

System: L1210 leukemia ip in BDF1 mice, survival T/C
Assay: NCI In Vivo Anticancer Drug Screen. Data for tumor model L1210 Leukemia (intraperitoneal) in B6D2F1 (BDF1) mice
Conditions: endpoint: mean survival time, higher = longer survival
Procedure, shortened: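 Ratio derived from survival: compound-dosed mice over vehicle-dosed mice, all bearing a transplantable tumor.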

[1] = dose: 50.0 mg/kg/injection, schedule: Q01DX001 (ip), vehicle: saline
[2] = dose: 50.0 mg/kg/injection, schedule: Q04DX003 (ip), vehicle: saline
[3] = dose: 100.0 mg/kg/injection, schedule: Q01DX009 (ip), vehicle: Klucel (hydroxypropylcellulose) (HPC)
[4] = dose: 200.0 mg/kg/injection, schedule: Q01DX009 (ip), vehicle: Klucel (hydroxypropylcellulose) (HPC)
[5] = dose: 400.0 mg/kg/injection, schedule: Q01DX009 (ip), vehicle: Klucel (hydroxypropylcellulose) (HPC)
[6] = dose: 100.0 mg/kg/injection, schedule: Q04DX003 (ip), vehicle: saline
[7] = dose: 200.0 mg/kg/injection, schedule: Q04DX003 (ip), vehicle: saline
[8] = dose: 100.0 mg/kg/injection, schedule: Q01DX001 (ip), vehicle: saline
[9] = dose: 50.0 mg/kg/injection, schedule: Q01DX009 (ip), vehicle: saline with Tween-80
[10] = dose: 100.0 mg/kg/injection, schedule: Q01DX009 (ip), vehicle: saline with Tween-80
[11] = dose: 100.0 mg/kg/injection, schedule: Q04DX003 (ip), vehicle: saline with Tween-80
[12] = dose: 200.0 mg/kg/injection, schedule: Q01DX009 (ip), vehicle: saline with Tween-80
[13] = dose: 200.0 mg/kg/injection, schedule: Q04DX003 (ip), vehicle: saline with Tween-80
[14] = dose: 25.0 mg/kg/injection, schedule: Q01DX009 (ip), vehicle: saline with Tween-80
[15] = dose: 400.0 mg/kg/injection, schedule: Q04DX003 (ip), vehicle: saline

Measured: T/C

CC1OC(=O)C(C2OC2C)=CC1O (stereo not given)
inactive: dose: 12.5 mg/kg/injection, schedule: Q01DX009 (ip), vehicle: saline 97 % of control | dose: 12.5 mg/kg/injection, schedule: Q04DX003 (ip), vehicle: saline 101 % of control | dose: 25.0 mg/kg/injection, schedule: Q01DX009 (ip), vehicle: saline 108 % of control | dose: 25.0 mg/kg/injection, schedule: Q04DX003 (ip), vehicle: saline 108 % of control | [1] 114 % of control | [2] 92 % of control

c1cc2c(cc1CNC1CCCCC1)OCO2
inactive: dose: 75.0 mg/kg/injection, schedule: Q01DX001 (ip), vehicle: saline 100 % of control

CC12C=CC3(CCC4C(C)(C)C(O)C(=O)CC4(C)C3CC1=O)C2 (stereo not given)
inactive: [3] 105 % of control | dose: 100.0 mg/kg/injection, schedule: Q04DX003 (ip), vehicle: Klucel (hydroxypropylcellulose) (HPC) 101 % of control | [4] 97 % of control | dose: 200.0 mg/kg/injection, schedule: Q04DX003 (ip), vehicle: Klucel (hydroxypropylcellulose) (HPC) 101 % of control | [5] 107 % of control | dose: 400.0 mg/kg/injection, schedule: Q04DX003 (ip), vehicle: Klucel (hydroxypropylcellulose) (HPC) 98 % of control

O=C1C(O)=C(Cl)C(=O)C(OC2=C(Cl)C(=O)C(OC3=C(Cl)C(=O)C(OC4=C(Cl)C(=O)C(Cl)=C(Cl)C4=O)=C(Cl)C3=O)=C(Cl)C2=O)=C1Cl
inactive: [6] 97 % of control | [7] 105 % of control

c1ccc([C](c2ccccc2)(c2ccccc2)[Sn]([c]2ccccc2)([c]2ccccc2)[c]2ccccc2)cc1
inactive: dose: 25.6 mg/kg/injection, schedule: Q04DX002 (ip), vehicle: saline with Tween-80 121 % of control | dose: 64.0 mg/kg/injection, schedule: Q04DX002 (ip), vehicle: saline with Tween-80 86 % of control | dose: 160.0 mg/kg/injection, schedule: Q04DX002 (ip), vehicle: saline with Tween-80 86 % of control | dose: 400.0 mg/kg/injection, schedule: Q04DX002 (ip), vehicle: saline with Tween-80 86 % of control

CCN(CC)CCOC(=O)c1[nH]cnc1/N=N\N(C)C
inactive: [8] 104 % of control | dose: 200.0 mg/kg/injection, schedule: Q01DX001 (ip), vehicle: saline 98 % of control

O=C1CCN2CCCc3cccc1c32
inactive: dose: 100.0 mg/kg/injection, schedule: Q01DX001 (ip), vehicle: other 100 % of control | dose: 200.0 mg/kg/injection, schedule: Q01DX001 (ip), vehicle: other 97 % of control | dose: 400.0 mg/kg/injection, schedule: Q01DX001 (ip), vehicle: other 102 % of control

O=[N+]([O-])c1ccc(C2=NCCO2)cc1
inactive: dose: 100.0 mg/kg/injection, schedule: Q04DX002 (ip), vehicle: saline 104 % of control | dose: 200.0 mg/kg/injection, schedule: Q04DX002 (ip), vehicle: saline 114 % of control | dose: 400.0 mg/kg/injection, schedule: Q04DX002 (ip), vehicle: saline 104 % of control

FC(F)(F)c1nc2nc(Br)c(Br)nc2[nH]1
inactive: [9] 108 % of control | [10] 89 % of control | [11] 109 % of control and 110 % of control and 111 % of control | [12] 98 % of control | [13] 102 % of control and 115 % of control

O=[N+]([O-])c1cnc(/C=C/c2ccccc2)nc1
inactive: dose: 100.0 mg/kg/injection, schedule: Q01DX001 (ip), vehicle: carboxymethylcellulose (CMC) 97 % of control | dose: 200.0 mg/kg/injection, schedule: Q01DX001 (ip), vehicle: carboxymethylcellulose (CMC) 95 % of control | dose: 400.0 mg/kg/injection, schedule: Q01DX001 (ip), vehicle: carboxymethylcellulose (CMC) 89 % of control

O=C1Oc2ccccc2C1c1ccccc1 (stereo not given)
inactive: dose: 87.5 mg/kg/injection, schedule: Q01DX009 (ip), vehicle: other 103 % of control | dose: 175.0 mg/kg/injection, schedule: Q01DX009 (ip), vehicle: other 108 % of control | dose: 350.0 mg/kg/injection, schedule: Q01DX009 (ip), vehicle: other 106 % of control

N=C(N)SCC(O)c1ccccc1 (stereo not given)
inactive: [3] 104 % of control | [4] 95 % of control

Cc1ccc(S(=O)(=O)OCC(c2ccccc2)C(F)(F)F)cc1 (stereo not given)
inactive: dose: 100.0 mg/kg/injection, schedule: Q01DX001 (ip), vehicle: saline with Tween-80 94 % of control | dose: 200.0 mg/kg/injection, schedule: Q01DX001 (ip), vehicle: saline with Tween-80 100 % of control | dose: 400.0 mg/kg/injection, schedule: Q01DX001 (ip), vehicle: saline with Tween-80 101 % of control

CN(CSc1c(Cl)c(Cl)c(Cl)c(Cl)c1Cl)c1ccccc1
inactive: dose: 100.0 mg/kg/injection, schedule: Q04DX002 (ip), vehicle: Klucel (hydroxypropylcellulose) (HPC) 103 % of control | dose: 200.0 mg/kg/injection, schedule: Q04DX002 (ip), vehicle: Klucel (hydroxypropylcellulose) (HPC) 98 % of control | dose: 400.0 mg/kg/injection, schedule: Q04DX002 (ip), vehicle: Klucel (hydroxypropylcellulose) (HPC) 93 % of control

O=C(O)/C=C/C(=O)NCCc1ccccc1
inactive: [3] 91 % of control | [4] 102 % of control | [5] 96 % of control

CC(C)OC(=O)COc1ccc(Cl)cc1
inactive: dose: 100.0 mg/kg/injection, schedule: Q01DX009 (ip), vehicle: carboxymethylcellulose (CMC) 101 % of control and 102 % of control | dose: 100.0 mg/kg/injection, schedule: Q04DX002 (ip), vehicle: carboxymethylcellulose (CMC) 101 % of control and 105 % of control | dose: 100.0 mg/kg/injection, schedule: Q04DX003 (ip), vehicle: carboxymethylcellulose (CMC) 102 % of control | dose: 200.0 mg/kg/injection, schedule: Q01DX009 (ip), vehicle: carboxymethylcellulose (CMC) 101 % of control and 91 % of control | dose: 200.0 mg/kg/injection, schedule: Q04DX002 (ip), vehicle: carboxymethylcellulose (CMC) 102 % of control and 106 % of control | dose: 200.0 mg/kg/injection, schedule: Q04DX003 (ip), vehicle: carboxymethylcellulose (CMC) 104 % of control | dose: 400.0 mg/kg/injection, schedule: Q01DX009 (ip), vehicle: carboxymethylcellulose (CMC) 108 % of control and 88 % of control | dose: 400.0 mg/kg/injection, schedule: Q04DX002 (ip), vehicle: carboxymethylcellulose (CMC) 98 % of control and 108 % of control | dose: 400.0 mg/kg/injection, schedule: Q04DX003 (ip), vehicle: carboxymethylcellulose (CMC) 101 % of control

CCCCCCP(=O)(CCCCCC)C1CCCC1
inactive: [11] 91 % of control | [13] 92 % of control

O=C(Cc1cccc2ccccc12)N/N=C/c1ccccc1O
inactive: [14] 86 % of control | [9] 93 % of control | [10] 100 % of control and 89 % of control

O=C(Nc1ccc2c(c1)OCO2)O/N=C\c1ccccc1
inactive: [10] 89 % of control | [11] 103 % of control | [12] 91 % of control | [13] 97 % of control | dose: 400.0 mg/kg/injection, schedule: Q01DX009 (ip), vehicle: saline with Tween-80 91 % of control | dose: 400.0 mg/kg/injection, schedule: Q04DX003 (ip), vehicle: saline with Tween-80 89 % of control

CCOC(=O)/C(=C/c1ccc(C)cc1)P(=O)(OCC)OCC
inactive: [1] 101 % of control | [8] 101 % of control

O=c1cc(CS)[nH]c(=O)[nH]1
inactive: [6] 98 % of control | [7] 101 % of control | [15] 98 % of control

NC1CCc2ccccc2C(O)C1c1ccccc1 (stereo not given)
inactive: [14] 97 % of control | dose: 25.0 mg/kg/injection, schedule: Q04DX003 (ip), vehicle: saline with Tween-80 107 % of control | [9] 105 % of control | dose: 50.0 mg/kg/injection, schedule: Q04DX003 (ip), vehicle: saline with Tween-80 104 % of control | [10] 100 % of control | [11] 102 % of control

Nc1nc2ncc(=O)[nH]c2c(=O)[nH]1
inactive: dose: 50.0 mg/kg/injection, schedule: Q01DX009 (ip), vehicle: saline 106 % of control | [2] 103 % of control | dose: 100.0 mg/kg/injection, schedule: Q01DX009 (ip), vehicle: saline 101 % of control | [6] 100 % of control | dose: 200.0 mg/kg/injection, schedule: Q01DX009 (ip), vehicle: saline 87 % of control | [7] 106 % of control | [15] 122 % of control

COc1ccc(COC(=O)Nc2ccc([N+](=O)[O-])cc2OC)cc1
inactive: [3] 90 % of control | [4] 91 % of control | [5] 106 % of control
